This note sets out measurements from publication PMC12311110 (Nature Communications, 2025).

Test [1] has as its system colocalization with VPS35 or SNX1 in HeLa cells. Put plainly: Immunofluorescence colocalization analysis (Manders/Pearson coefficients). Type of test: cell-based, human. Particulars: mean of the 3 experiment averages (n = 3). Here is the method: HeLa cells were seeded onto 13 mm coverslips. Cells were fixed in 4% (v/v) paraformaldehyde (PFA) (Pierce, 28906) in PBS for 20 min and permeabilised in 0.1% (v/v) Triton X-100 in PBS (Sigma-Aldrich), or in 0.1% (w/v) saponin (sigma-Aldrich) in PBS when labelling LAMP1 compartments, for 5 min followed by blocking with 2% (w/v) BSA (Sigma, 05482) in PBS for 30 min. Coverslips were stained with primary antibodies for 1 hr followed by secondary antibodies for 30 min, then mounted onto glass microscope slides with Fluoromount-G (Invitrogen, 00-4958-02).
Confocal microscope images were taken on a Leica SP5-II confocal laser scanning microscope attached to a Leica DMI 6000 inverted epifluorescence microscope or a Leica SP8 confocal laser scanning microscope attached to a Leica DM l8 inverted epifluorescence microscope (Leica Microsystems), with a 63x UV oil immersion lens, numerical aperture 1.4 (Leica Microsystems, 506192). For the Leica SP8 microscope, ‘lightning’ adaptive image restoration was used to generate deconvolved representative images. Colocalization analysis was performed using Volocity 6.3 software (PerkinElmer) or JACOP plugin from ImageJ-FIJI software. Spinning disk high-resolution images were acquired on an IXplore SpinSR system (Olympus) consisting of an IX83 microscope frame with a CO2 and temperature chamber (Olympus), SoRa W1 twin cam spinning disk unit (Yokogawa) and two back-thinned Fusion BT sCMOS cameras (Hamamatsu). A 488 nm or 561 nm laser provided excitation for the green and red channels, respectively. The SoRa disk with an additional 3.2x magnification changer was used for imaging with excitation light focused to the sample using a 60x/1.4NA oil immersion lens. The system operated in simultaneous twin-cam mode, and the desired fluorescence was selected through the use of either a 525/50 nm or 617/73 nm bandpass filter for the green or red channel, respectively.

Test [2] deals with T1, hRetromer (Homo sapiens, UniProt O75436+Q96QK1+Q9UBQ0).
T1 construct: GST (pGEX4T-2, thrombin site plus linker) (N, cleaved yes); made in house; host or cells: E. coli BL21 (DE3)
As to the kind of experiment: Isothermal titration calorimetry (ITC) of binding to Retromer. Particulars: 25 °C; for Kd / -TΔS / ΔG / ΔH: ITC, mean of triplicate titrations. The procedure:
All the bacteria constructs were expressed in BL21 (DE3) cells using the autoinduction method. In brief, cultures grown in complex medium were incubated at 37 °C for 4 h, followed by overnight growth at 20 °C before harvesting for purification. […] In all cases, the soluble fractions clarified by centrifugation were loaded onto pre-equilibrated glutathione sepharose (GE healthcare) for initial purification. For Retromer, an additional Talon® resin purification step was performed to ensure the correct stoichiometry. GST-tag removal was carried out co-column overnight by adding thrombin for Human Retromer and PreScission protease for TBC1D13. The GST-tag removed fraction was further purified by size-exclusion chromatography (SEC) using a Superdex 200 (16/600) column (GE Healthcare) equilibrated with buffer containing 50 mM Tris-HCl pH 7.5, 200 mM NaCl, 2 mM β-ME.
The effect of cyclic peptide was assessed by pre-mixing 140 µM RT-D1 into 14 µM Retromer before titrating with 1 mM of native DENND4C1189-1206 peptide. For the binding experiment between Retromer and TBC1D13, 530 µM of TBC1D13 was titrated into 14 µM Retromer. The effect of the cyclic peptide was tested using the same concentration of RT-D1 as described above. All ITC experiments consisted of an initial 0.4 μl (not used in data processing), followed by 12 serial injections of 3.22 μl each with 180 sec intervals. The resulting titration data were integrated with the Malvern software package by fitting and normalised data to a single-site binding model. This yielded the thermodynamic parameters for all binding experiments, including the dissociation constant (Kd), enthalpy (∆H), Gibbs free energy (∆G) and -T∆S. The stoichiometry (N) was refined initially, and if the value was close to 1, then it was set to exactly 1.0 for calculation. The data presented are the mean of triplicate titrations for each experiment.

In test [3] the test system is HeLa lines expressing the BioID1 chimeric versions. Put plainly: GLUT1 and α5β1-integrin trafficking (lysosomal missorting/colocalization with LAMP1) after biotin incubation. Type of test: cell-based, human. As to conditions: 24 h incubation with 50 µM biotin; HeLa lines expressing the BioID1 chimeras; confocal imaging. The procedure: To explore the robustness of the proximity labelling, we performed an initial biased identification of the biotinylated proteins using western analysis of target proteins. Although 12 h incubation with biotin was enough to label some interactors, we chose to perform all experiments using 24 h incubation to maximise the detection of weak and low abundance proximity proteins, and the potential to identify cargo proteins transiting through the sub-domains (Supplementary Fig. 2H). Importantly, we tested whether the actual biotin-labelling process had any detectable effect on Retromer and Retriever-dependent cargo sorting.
HeLa cells were seeded onto 13 mm coverslips. […]
Confocal microscope images were taken on a Leica SP5-II confocal laser scanning microscope attached to a Leica DMI 6000 inverted epifluorescence microscope or a Leica SP8 confocal laser scanning microscope attached to a Leica DM l8 inverted epifluorescence microscope (Leica Microsystems), with a 63x UV oil immersion lens, numerical aperture 1.4 (Leica Microsystems, 506192). […] The system operated in simultaneous twin-cam mode, and the desired fluorescence was selected through the use of either a 525/50 nm or 617/73 nm bandpass filter for the green or red channel, respectively. […]

Where [4] appears, read: 1 mM DENND4C1189-1206 peptide (native or L1204A) titrated into 14 µM Retromer.
Setting [5] is: 140 µM RT-D1 pre-mixed into 14 µM Retromer, then titrated with 1 mM native DENND4C1189-1206 peptide.

Like-named read-outs stand apart in the source and are kept apart here. No end group written: not given here.

GFP-DENND4C WT: in test [1], the GFP-DENND4C dots/section worked out at 55.5, the “M1 GFP-DENND4C/VPS35 (Manders coefficient)” value is 0.4133 and the “M2 GFP-DENND4C/VPS35 (Manders coefficient)” value stood at 0.28.

In the case of “Ac-yIIDTPLGVFLSSLKRC-NH2 [RT-D1, reference compound]”, in test [2] (ITC competition, 140 µM RT-D1 pre-mixed into 14 µM Retromer, 1 mM DENND4C1189-1206 peptide titrated), the “Effect of competing RT-D1 on binding of the DENND4C PL-containing peptide” value is “blocked”.

As a reminder, the Kd is the free concentration of one partner at which half of the binding sites on the other are occupied at equilibrium, for simple one-to-one binding. On to AKVVQREDVETGLDPLSL [hDENND4C1189-1206], for which, in test [2] (Microcal PEAQ-ITC, 1 mM DENND4C1189-1206 peptide (native or L1204A) titrated into 14 µM Retromer, single-site binding model, read-out: Kd), the equilibrium dissociation constant (Kd) was 15.4 ± 0.85 µM.

As to “AKVVQREDVETGLDPASL [hDENND4C1189-1206 L1204A]”, in test [2] (setting [4]), the “-TΔS” value is on record as “No binding detected”, the ΔG entry is given as “No binding detected” and the ΔH entry is given as “No binding detected”. The Kd result in test [2] (Microcal PEAQ-ITC, 1 mM DENND4C1189-1206 peptide (native or L1204A) titrated into 14 µM Retromer, single-site binding model) was “No binding detected”.

On to GFP-DENND4C L1201A, for which, in test [1], the GFP-DENND4C dots/section came to 11.1, the “M1 GFP-DENND4C/VPS35 (Manders coefficient)” value is 0.06333 and the “M2 GFP-DENND4C/VPS35 (Manders coefficient)” value came to 0.06433.

“hDENND4C1189-1206 + RT-D1: native DENND4C1189-1206 peptide titrated into Retromer pre-mixed with 140 µM RT-D1 (AKVVQREDVETGLDPLSL; premixed with Retromer and RT-D1; UniProt Q5VZ89 1189-1206, looked up, fragment)”: in test [2] (setting [5]), the “-TΔS” value was “No binding detected”, the dissociation constant (Kd) entry is on record as “No binding detected”, the ΔG entry is “No binding detected” and the ΔH result is “No binding detected”.

`O=C(O)CCCC[C@@H]1SC[C@@H]2NC(=O)N[C@@H]21` [biotin]: the “Effect of biotin labelling on trafficking of GLUT1 or α5β1-integrin” value in test [3] is given as “did not detect significant changes”.
